Results on 7 molecules are retold here after ChEMBL document CHEMBL5465560, “Selectivity Literature for EUbOPEN Chemogenomic Library” (2024).

Experiment [1] addresses T1, Serine/threonine-protein kinase NLK (Homo sapiens) (UniProt Q9UBE8).
T1 sequence (whole entry): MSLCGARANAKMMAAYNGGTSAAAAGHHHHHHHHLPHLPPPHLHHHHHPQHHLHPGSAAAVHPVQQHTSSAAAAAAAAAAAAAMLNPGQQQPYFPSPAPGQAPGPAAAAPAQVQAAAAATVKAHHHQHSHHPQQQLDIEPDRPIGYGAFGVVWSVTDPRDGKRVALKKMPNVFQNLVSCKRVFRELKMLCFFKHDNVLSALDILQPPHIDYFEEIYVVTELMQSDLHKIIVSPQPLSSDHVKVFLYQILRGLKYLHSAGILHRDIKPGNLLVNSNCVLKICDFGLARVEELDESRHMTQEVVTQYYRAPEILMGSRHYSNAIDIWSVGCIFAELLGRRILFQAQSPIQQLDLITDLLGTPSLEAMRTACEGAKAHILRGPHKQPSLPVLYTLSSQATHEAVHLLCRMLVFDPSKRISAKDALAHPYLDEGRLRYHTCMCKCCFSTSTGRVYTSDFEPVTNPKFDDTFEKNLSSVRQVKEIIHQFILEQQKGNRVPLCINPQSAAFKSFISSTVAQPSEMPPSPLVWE
Description: Selectivity interaction (KinomeScan (DiscoverX)) EUB0000092b NLK. The following applies: at 10 µM.

Experiment [2] concerns the target Receptor-interacting serine/threonine-protein kinase 3 (Homo sapiens) (UniProt Q9Y572). Description: Selectivity interaction (LanthaScreen Eu Kinase Binding Assay) EUB0001632a RIPK3. The following applies: at 10 µM.
In experiment [3] the target is Serine/threonine-protein kinase PAK 6 (Homo sapiens) (UniProt Q9NQU5). The experiment in a line: Selectivity interaction (SelectScreen profiling (Invitrogen)) EUB0000607a PAK6. The following applies: at 2 µM.
Experiment [4] concerns the target Cyclin-dependent kinase 18 (Homo sapiens) (UniProt Q07002). The experiment in a line: Selectivity interaction (ActivX KiNativ screen (kinase selectivity in THP-1 cell lysates)) EUB0000639a CDK18. In kind it is subcellular. The following applies: lysate, at 1 µM.
Experiment [5] deals with MAP/microtubule affinity-regulating kinase 3 (Homo sapiens) (UniProt P27448). Description: Selectivity interaction (KinomeScan (DiscoverX)) EUB0000229b MARK3. To be noted: at 10 µM.
For experiment [6], the target named is T2, Mitogen-activated protein kinase kinase kinase 5 (Homo sapiens) (UniProt Q99683).
T2 sequence (whole entry): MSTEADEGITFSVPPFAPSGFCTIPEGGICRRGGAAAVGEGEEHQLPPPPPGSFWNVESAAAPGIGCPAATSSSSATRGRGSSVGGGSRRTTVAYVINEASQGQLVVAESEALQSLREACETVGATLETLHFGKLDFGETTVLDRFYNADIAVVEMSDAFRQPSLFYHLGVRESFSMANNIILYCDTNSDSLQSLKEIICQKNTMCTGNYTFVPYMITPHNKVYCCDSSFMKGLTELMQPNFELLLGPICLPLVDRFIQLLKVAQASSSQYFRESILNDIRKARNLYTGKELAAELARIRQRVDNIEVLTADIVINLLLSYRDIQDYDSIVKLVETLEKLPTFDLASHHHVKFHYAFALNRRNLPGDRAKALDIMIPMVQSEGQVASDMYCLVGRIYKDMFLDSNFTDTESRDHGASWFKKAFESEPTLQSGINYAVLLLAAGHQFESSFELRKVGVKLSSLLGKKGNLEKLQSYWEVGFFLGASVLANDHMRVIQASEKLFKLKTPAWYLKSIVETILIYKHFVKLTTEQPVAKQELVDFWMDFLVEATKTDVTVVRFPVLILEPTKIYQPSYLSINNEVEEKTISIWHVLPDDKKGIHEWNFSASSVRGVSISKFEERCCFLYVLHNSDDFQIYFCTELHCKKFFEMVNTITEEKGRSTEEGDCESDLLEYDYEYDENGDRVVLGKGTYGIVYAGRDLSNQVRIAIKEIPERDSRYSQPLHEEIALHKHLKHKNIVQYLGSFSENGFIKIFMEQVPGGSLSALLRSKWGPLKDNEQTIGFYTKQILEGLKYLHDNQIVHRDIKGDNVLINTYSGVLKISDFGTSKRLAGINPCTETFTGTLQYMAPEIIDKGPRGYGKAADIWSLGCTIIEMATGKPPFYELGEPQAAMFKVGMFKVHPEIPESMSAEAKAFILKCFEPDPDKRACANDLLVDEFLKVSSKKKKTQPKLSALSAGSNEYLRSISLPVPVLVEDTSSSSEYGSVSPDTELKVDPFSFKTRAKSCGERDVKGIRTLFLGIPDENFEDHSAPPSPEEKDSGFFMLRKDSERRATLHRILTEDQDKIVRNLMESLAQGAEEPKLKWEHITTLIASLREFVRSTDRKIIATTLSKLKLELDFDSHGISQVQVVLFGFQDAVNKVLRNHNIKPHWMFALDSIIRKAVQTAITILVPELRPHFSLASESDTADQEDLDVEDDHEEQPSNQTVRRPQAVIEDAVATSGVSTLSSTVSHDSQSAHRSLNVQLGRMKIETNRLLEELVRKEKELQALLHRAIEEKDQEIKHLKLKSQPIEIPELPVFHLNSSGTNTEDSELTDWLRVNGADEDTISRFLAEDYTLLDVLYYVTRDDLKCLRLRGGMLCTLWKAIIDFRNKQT
Description: Selectivity interaction (KinomeScan (DiscoverX)) EUB0000595a MAP3K5. To be noted: at 10 µM.

Experiment [7] has as its target Epithelial discoidin domain-containing receptor 1 (Homo sapiens) (UniProt Q08345). The experiment in a line: Selectivity interaction (KinomeScan (DiscoverX)) EUB0001619a DDR1. The following applies: at 1 µM.

Cyclin-dependent kinase 18 (Homo sapiens), sequence (Q07002 whole entry): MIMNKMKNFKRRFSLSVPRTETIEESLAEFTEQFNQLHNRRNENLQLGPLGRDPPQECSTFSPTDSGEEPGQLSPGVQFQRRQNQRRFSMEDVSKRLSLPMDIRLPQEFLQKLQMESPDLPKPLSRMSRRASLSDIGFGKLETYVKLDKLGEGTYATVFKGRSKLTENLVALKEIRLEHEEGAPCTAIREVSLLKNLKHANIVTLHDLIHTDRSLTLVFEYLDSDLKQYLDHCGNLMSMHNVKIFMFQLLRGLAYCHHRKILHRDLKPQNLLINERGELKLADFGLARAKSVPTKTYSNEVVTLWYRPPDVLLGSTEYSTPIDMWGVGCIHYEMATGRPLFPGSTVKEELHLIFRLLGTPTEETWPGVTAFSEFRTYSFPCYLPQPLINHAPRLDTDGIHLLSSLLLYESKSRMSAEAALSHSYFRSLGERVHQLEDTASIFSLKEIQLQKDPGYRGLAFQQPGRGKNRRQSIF
Epithelial discoidin domain-containing receptor 1 (Homo sapiens), sequence (Q08345 whole entry, the tested form may be a part): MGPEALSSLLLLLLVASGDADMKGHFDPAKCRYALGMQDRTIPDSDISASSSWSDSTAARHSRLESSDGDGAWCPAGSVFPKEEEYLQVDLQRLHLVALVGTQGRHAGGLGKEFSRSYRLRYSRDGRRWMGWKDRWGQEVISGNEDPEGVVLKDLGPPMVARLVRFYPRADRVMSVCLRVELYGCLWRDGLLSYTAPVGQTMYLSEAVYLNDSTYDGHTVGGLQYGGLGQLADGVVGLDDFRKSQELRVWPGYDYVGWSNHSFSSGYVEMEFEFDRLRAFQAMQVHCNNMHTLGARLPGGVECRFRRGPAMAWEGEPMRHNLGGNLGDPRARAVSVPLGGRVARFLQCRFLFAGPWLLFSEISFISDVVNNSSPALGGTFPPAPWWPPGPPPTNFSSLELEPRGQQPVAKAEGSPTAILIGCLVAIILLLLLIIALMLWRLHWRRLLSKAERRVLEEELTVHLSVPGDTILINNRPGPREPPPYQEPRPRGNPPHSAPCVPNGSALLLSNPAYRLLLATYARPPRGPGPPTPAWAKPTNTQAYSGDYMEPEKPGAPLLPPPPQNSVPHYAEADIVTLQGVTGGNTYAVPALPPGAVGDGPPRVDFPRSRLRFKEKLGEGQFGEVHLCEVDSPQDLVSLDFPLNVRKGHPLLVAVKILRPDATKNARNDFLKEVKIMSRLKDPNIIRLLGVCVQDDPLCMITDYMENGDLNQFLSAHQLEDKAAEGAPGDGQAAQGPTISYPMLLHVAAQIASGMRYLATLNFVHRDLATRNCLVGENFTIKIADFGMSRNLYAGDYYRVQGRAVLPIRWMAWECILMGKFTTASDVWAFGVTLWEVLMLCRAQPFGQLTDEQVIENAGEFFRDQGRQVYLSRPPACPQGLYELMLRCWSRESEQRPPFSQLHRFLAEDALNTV
Receptor-interacting serine/threonine-protein kinase 3 (Homo sapiens), sequence (Q9Y572 whole entry, looked up): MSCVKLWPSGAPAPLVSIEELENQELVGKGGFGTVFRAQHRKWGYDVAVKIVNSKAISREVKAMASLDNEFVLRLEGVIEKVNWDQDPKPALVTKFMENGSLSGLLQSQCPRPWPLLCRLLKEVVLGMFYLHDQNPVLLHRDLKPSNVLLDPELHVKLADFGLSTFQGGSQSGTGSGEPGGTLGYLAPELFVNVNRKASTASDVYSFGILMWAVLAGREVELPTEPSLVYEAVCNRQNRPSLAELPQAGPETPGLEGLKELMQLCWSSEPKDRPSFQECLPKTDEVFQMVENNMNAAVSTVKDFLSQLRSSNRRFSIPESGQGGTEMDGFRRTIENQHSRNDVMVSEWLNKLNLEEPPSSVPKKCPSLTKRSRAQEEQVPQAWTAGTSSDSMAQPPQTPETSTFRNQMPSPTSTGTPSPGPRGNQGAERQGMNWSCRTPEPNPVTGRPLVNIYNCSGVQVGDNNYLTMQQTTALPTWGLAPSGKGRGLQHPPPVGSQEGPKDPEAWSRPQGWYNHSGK
Serine/threonine-protein kinase PAK 6 (Homo sapiens), sequence (Q9NQU5 whole entry, looked up): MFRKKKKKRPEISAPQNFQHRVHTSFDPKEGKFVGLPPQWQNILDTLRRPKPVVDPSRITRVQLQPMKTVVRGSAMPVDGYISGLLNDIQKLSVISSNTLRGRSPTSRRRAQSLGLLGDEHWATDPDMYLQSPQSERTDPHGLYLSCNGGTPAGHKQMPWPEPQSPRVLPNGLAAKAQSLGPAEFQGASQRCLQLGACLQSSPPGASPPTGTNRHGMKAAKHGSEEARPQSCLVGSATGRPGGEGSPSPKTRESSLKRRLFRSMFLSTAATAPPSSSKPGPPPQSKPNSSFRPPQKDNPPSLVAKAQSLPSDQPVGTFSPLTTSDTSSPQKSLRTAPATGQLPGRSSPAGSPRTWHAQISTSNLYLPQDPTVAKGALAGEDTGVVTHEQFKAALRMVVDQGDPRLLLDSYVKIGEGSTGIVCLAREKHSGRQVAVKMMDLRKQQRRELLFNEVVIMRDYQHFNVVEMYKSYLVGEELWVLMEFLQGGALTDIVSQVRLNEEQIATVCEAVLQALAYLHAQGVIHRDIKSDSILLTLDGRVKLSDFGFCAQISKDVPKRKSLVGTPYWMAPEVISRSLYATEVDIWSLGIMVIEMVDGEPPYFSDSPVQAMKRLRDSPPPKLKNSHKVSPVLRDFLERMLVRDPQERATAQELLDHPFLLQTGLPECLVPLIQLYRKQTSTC
MAP/microtubule affinity-regulating kinase 3 (Homo sapiens), sequence (P27448 whole entry, looked up): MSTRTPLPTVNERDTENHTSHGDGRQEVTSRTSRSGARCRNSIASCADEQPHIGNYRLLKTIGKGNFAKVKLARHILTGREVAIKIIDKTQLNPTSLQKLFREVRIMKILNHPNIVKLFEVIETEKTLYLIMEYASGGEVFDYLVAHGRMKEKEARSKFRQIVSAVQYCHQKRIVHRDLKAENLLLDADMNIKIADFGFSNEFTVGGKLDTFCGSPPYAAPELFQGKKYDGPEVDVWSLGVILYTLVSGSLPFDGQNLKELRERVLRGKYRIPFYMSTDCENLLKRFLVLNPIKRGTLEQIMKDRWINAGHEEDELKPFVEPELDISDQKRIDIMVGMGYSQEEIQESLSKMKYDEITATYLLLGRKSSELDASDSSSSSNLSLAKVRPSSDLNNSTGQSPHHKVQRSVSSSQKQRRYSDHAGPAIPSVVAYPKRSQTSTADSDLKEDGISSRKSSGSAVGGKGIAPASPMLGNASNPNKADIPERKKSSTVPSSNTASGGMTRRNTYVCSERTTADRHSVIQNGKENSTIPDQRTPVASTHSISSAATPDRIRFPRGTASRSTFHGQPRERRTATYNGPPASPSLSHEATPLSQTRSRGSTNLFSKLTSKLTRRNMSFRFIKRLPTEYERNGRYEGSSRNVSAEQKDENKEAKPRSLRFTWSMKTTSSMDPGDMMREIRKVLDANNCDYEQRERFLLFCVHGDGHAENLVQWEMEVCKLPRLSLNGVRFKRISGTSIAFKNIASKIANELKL

In experiment [1], `CCC(=O)N1CCN(c2ccc(-n3c(=O)ccc4cnc5ccc(-c6cnc7ccccc7c6)cc5c43)cc2C(F)(F)F)CC1` came in with a % of control of 25%.
For the molecule `Cn1cc(-n2cnc3c(NCc4nc5cc(Cl)c(Cl)cc5[nH]4)nc(N4CCOCC4)nc32)cn1`, the % of inhibition in experiment [2] was -15.4%.
With `CNC(=O)Nc1ccc(-c2nc(N3CC4CCC(C3)O4)c3cnn(C4CCC5(CC4)OCCO5)c3n2)cc1`, the % of inhibition in experiment [3] was determined as 9%.
Regarding `CC[C@@H]1[C@H](F)C(=O)N[C@@H]1COc1nccc2cc(C(N)=O)c(OC)cc12` [ZIMLOVISERTIB], in experiment [4], the % of inhibition is 3.9%.
Regarding `COc1cc(N(C)c2ccnc3ccc(C(F)(F)F)cc23)cc(OC)c1OC`, in experiment [5], the % binding is 100%.
`COCC(=O)NC/C=C/c1ccc2ncnc(Nc3ccc(Oc4ccc(C)nc4)c(C)c3)c2c1` [CP-724714] yielded a % of control in experiment [6] of 90%.
`N#Cc1cccc(-c2c[nH]c3ncnc(N4CCOCC4)c23)c1` had a % of control in experiment [7] of 100%.
